Measurements taken from article PMC6508495, “Members of the abscisic acid co‐receptor PP2C protein family mediate salicylic acid–abscisic acid crosstalk” (Plant Direct, 2017).

What was measured:
[1] = target: T1, PP2C-D4 (Arabidopsis thaliana, UniProt Q94CL8); test: SPR, 3AESA immobilised on CM5 chip; assay type: binding; settings: 3AESA amide-coupled to chip; 1 uM protein; competed by SA
T1 construct: gene PP2C6; ORF from Arabidopsis cDNA library in pET42a (NdeI/XhoI), His6-tagged, E. coli Rosetta 2 (DE3), Ni-NTA and gel filtration
T1 sequence (Q94CL8 1-384): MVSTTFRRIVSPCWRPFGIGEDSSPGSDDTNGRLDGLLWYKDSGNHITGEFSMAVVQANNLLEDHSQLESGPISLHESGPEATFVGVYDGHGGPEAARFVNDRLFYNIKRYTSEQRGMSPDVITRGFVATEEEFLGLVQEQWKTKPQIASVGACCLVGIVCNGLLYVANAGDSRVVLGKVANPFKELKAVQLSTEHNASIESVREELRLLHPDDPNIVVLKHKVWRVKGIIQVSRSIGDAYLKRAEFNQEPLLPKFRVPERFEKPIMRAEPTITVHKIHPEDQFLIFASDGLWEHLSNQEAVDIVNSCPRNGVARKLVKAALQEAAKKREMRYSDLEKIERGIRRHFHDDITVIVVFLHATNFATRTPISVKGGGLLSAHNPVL

[2] = target: T2, ABI2 (Arabidopsis thaliana, UniProt O04719); test: SPR, 3AESA immobilised on CM5 chip; assay type: binding; settings: 3AESA amide-coupled to chip; 1 uM protein; competed by SA
T2 construct: ORF from Arabidopsis cDNA library in pET28a, His6-tagged, E. coli Rosetta 2 (DE3), Ni-NTA and gel filtration
T2 sequence (O04719 1-423): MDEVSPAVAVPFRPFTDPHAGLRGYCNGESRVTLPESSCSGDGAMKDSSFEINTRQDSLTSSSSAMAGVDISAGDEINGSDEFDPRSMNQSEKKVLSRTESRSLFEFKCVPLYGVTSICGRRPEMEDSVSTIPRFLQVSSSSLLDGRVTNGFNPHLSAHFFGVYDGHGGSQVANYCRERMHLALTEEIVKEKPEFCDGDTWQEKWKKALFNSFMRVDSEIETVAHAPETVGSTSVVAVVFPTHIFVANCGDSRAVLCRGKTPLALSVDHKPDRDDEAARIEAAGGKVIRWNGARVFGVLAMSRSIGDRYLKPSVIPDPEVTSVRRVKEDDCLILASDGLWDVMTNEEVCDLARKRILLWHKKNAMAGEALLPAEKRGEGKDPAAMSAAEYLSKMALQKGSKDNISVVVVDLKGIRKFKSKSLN

[3] = target: T3, ABI1 (Arabidopsis thaliana, UniProt P49597); test: SPR, 3AESA immobilised on CM5 chip; assay type: binding; settings: 3AESA amide-coupled to chip; 1 uM protein; competed by SA
T3 construct: ORF from Arabidopsis cDNA library in pET28a, His6-tagged, E. coli Rosetta 2 (DE3), Ni-NTA and gel filtration
T3 sequence (P49597 1-434): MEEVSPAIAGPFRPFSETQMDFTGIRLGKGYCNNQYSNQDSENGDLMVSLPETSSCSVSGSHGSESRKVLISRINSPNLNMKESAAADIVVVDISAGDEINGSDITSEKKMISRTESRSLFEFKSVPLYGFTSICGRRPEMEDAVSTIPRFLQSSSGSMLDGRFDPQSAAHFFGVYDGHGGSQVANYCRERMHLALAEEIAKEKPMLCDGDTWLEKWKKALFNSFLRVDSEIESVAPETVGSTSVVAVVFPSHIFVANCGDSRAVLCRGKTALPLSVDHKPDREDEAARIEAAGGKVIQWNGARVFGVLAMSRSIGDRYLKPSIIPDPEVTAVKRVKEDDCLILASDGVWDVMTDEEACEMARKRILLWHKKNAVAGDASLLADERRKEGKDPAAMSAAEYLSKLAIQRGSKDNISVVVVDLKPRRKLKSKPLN

[4] = target: T2, ABI2; test: photoaffinity crosslinking, anti-SA immunoblot; assay type: binding; settings: 50 uM 4AzSA; 50 ng protein; photo-activated, covalent; competed by SA
[5] = target: T3, ABI1; test: photoaffinity crosslinking, anti-SA immunoblot; assay type: binding; settings: 50 uM 4AzSA; 50 ng protein; photo-activated, covalent; competed by SA
[6] = target: T4, PYL1 with ABI1 (Arabidopsis thaliana, UniProt Q8VZS8); test: SPR of ABI1 binding to immobilised PYL1, enhanced by ABA; settings: indirect: ABA-enhanced receptor-PP2C interaction; HBS-EP buffer
T4 construct: His6-SUMO-tagged PYL1 immobilised on CM5 chip; His6-ABI1 as analyte; both from E. coli; with Protein phosphatase 2C 56
T4 sequence (Q8VZS8 2-221): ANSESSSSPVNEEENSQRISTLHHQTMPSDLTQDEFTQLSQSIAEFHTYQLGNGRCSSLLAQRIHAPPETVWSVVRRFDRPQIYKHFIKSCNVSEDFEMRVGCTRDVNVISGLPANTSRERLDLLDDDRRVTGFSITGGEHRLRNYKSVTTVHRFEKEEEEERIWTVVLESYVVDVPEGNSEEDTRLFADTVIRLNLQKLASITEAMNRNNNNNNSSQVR
T4 sequence (P49597 1-434 partner): T3 sequence (P49597 1-434)

[7] = target: T5, PYR1 with ABI1 (Arabidopsis thaliana, UniProt O49686); test: SPR of ABI1 binding to immobilised PYR1, enhanced by ABA; settings: indirect: ABA-enhanced receptor-PP2C interaction; HBS-EP buffer
T5 construct: His-SUMO-tagged PYR1 immobilised on CM5 chip; His6-ABI1 as analyte; both from E. coli; with Protein phosphatase 2C 56
T5 sequence (O49686 1-191): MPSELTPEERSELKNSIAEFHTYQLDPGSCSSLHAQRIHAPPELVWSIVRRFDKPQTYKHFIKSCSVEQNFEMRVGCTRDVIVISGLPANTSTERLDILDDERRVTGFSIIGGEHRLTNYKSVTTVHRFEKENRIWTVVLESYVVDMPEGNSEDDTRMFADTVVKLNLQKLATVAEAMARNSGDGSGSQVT
T5 sequence (P49597 1-434 partner): T3 sequence (P49597 1-434)

[8] = target: T6, PYL2 with ABI1 (Arabidopsis thaliana, UniProt O80992); test: SPR of ABI1 binding to immobilised PYL2, enhanced by ABA; settings: indirect: ABA-enhanced receptor-PP2C interaction; HBS-EP buffer
T6 construct: His-SUMO-tagged PYL2 immobilised on CM5 chip; His6-ABI1 as analyte; both from E. coli; with Protein phosphatase 2C 56
T6 sequence (O80992 1-190): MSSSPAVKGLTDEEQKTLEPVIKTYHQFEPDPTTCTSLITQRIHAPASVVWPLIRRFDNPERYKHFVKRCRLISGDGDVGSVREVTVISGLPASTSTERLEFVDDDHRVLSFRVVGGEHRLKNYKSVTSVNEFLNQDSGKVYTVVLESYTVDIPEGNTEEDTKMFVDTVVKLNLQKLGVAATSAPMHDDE
T6 sequence (P49597 1-434 partner): T3 sequence (P49597 1-434)

[9] = target: T1, PP2C-D4; test: size-exclusion chromatography with [3H]SA; assay type: binding; settings: 200 nM [3H]SA; 200 ng/ul protein; labelled compound
[10] = target: T3, ABI1; test: size-exclusion chromatography with [3H]SA; assay type: binding; settings: 200 nM [3H]SA; 200 ng/ul protein; labelled compound
[11] = target: T2, ABI2; test: size-exclusion chromatography with [3H]SA; assay type: binding; settings: 200 nM [3H]SA; 200 ng/ul protein; labelled compound

Q: Which results are given for `NCCc1cccc(C(=O)O)c1O` [3AESA]?
A: SPR, 3AESA immobilised on CM5 chip [1]: Binding to 3AESA was detected when purified PP2C‐D4 was passed over the sensor chip; SPR, 3AESA immobilised on CM5 chip [2]: recombinant ABI1 and ABI2 bound the 3AESA‐immobilized sensor chip and crosslinked with 4AzSA; SPR, 3AESA immobilised on CM5 chip [3]: recombinant ABI1 and ABI2 bound the 3AESA‐immobilized sensor chip and crosslinked with 4AzSA

Q: What does the source list for `[N-]=[N+]=Nc1ccc(C(=O)O)c(O)c1` [4AzSA]?
A: photoaffinity crosslinking, anti-SA immunoblot [4]: recombinant ABI1 and ABI2 bound the 3AESA‐immobilized sensor chip and crosslinked with 4AzSA; photoaffinity crosslinking, anti-SA immunoblot [5]: recombinant ABI1 and ABI2 bound the 3AESA‐immobilized sensor chip and crosslinked with 4AzSA

Q: Which results are given for `CC1=CC(=O)CC(C)(C)[C@@]1(O)/C=C/C(C)=C\C(=O)O` [ABA]?
A: SPR of ABI1 binding to immobilised PYL1, enhanced by ABA [6]: this binding was enhanced several fold in the presence of ABA; SPR of ABI1 binding to immobilised PYR1, enhanced by ABA [7]: dose‐dependent binding to the PP2Cs, which was further enhanced in the presence of ABA; SPR of ABI1 binding to immobilised PYL2, enhanced by ABA [8]: dose‐dependent binding to the PP2Cs, which was further enhanced in the presence of ABA

Q: For `O=C(O)c1ccccc1O` [SA], which “size-exclusion chromatography with [3H]SA” value [9] is on record?
A: PP2C‐D4's ability to bind SA also was confirmed by size‐exclusion chromatography using [^3H]SA

Q: What about the “size-exclusion chromatography with [3H]SA” value [10] of the same compound?
A: ABI1 exhibited relatively weak binding to [^3H]SA

Q: What about the “size-exclusion chromatography with [3H]SA” value [11] of the same compound?
A: ABI2's binding to [^3H]SA was comparable to that of PP2C‐D4
